Test results taken from ChEMBL document CHEMBL1131495, “2,4-Diamino-6,7-dihydro-5H-cyclopenta[d]pyrimidine analogues of trimethoprim as inhibitors of Pneumocystis carinii and Toxoplasma gondii dihydrofolate reductase” (J Med Chem, 1998).

Tests used:
Dihydrofolate reductase [1] = target: T1, Dihydrofolate reductase (Rattus norvegicus, UniProt Q920D2)
T1 sequence (Q920D2 whole entry): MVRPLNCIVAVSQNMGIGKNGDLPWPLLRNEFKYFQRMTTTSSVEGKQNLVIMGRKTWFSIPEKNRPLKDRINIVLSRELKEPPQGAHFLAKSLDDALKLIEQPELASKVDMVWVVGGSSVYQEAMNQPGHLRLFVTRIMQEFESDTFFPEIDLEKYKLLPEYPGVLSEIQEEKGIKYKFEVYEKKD
Description: Compound was tested for inhibition activity against rat liver lipophilic Dihydrofolate reductase (DHFR).

[2] = target: T2, Bifunctional dihydrofolate reductase-thymidylate synthase (Toxoplasma gondii, UniProt Q07422); experiment: Compound was tested for inhibition activity against Toxoplasma gondii (Toxoplasma gondii) Dihydrofolate reductase
T2 sequence (Q07422 whole entry): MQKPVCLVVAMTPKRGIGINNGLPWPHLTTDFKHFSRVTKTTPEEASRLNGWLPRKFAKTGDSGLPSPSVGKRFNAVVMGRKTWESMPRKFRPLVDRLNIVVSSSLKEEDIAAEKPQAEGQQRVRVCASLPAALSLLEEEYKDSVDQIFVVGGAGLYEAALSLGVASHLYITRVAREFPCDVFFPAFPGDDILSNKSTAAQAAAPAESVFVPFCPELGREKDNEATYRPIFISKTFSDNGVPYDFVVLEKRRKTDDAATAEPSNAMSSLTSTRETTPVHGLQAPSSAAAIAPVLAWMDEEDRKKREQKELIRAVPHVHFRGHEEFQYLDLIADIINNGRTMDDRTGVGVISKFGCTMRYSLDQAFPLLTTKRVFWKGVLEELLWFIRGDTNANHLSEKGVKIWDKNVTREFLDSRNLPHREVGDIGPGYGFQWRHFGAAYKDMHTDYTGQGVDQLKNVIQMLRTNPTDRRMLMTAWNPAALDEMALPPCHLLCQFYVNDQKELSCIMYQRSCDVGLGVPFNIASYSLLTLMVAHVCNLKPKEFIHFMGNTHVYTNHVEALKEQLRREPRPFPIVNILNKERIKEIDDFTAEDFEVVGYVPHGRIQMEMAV

Dihydrofolate reductase [3] = target: T3, Dihydrofolate reductase (Pneumocystis carinii, UniProt P16184)
T3 sequence (P16184 whole entry): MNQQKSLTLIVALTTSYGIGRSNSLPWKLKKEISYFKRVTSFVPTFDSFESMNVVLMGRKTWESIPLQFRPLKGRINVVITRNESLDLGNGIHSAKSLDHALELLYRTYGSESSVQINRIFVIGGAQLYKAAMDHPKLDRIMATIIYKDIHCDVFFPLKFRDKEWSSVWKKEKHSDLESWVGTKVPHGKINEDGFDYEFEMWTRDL
Description: Compound was tested for inhibition activity against pneumocystis carinii (Pneumocystis carinii) Dihydrofolate reductase

[4] = Selectivity ratio is the ratio between the IC50 values of rat liver and Toxoplasma gondii
[5] = Selectivity ratio is the ratio between the IC50 values of rat liver and Pneumocystis carinii

| IC50 (Dihydrofolate reductase [1]) | IC50 (Dihydrofolate reductase [3]) | Selectivity ratio [5] | SMILES | IC50 [2] | Selectivity ratio [4] |
| --- | --- | --- | --- | --- | --- |
| 69000 nM | > 32000 nM |  | COc1cc(CC2CCc3nc(N)nc(N)c32)cc(OC)c1OC (stereo not given) | 21000 nM | 3.29 |
| 510 nM | 1800 nM | 0.28 | COc1cc(CCC2CCc3nc(N)nc(N)c32)cc(OC)c1OC (stereo not given) | 140 nM | 3.64 |
| 15 nM |  |  | COc1ccc(OC)c(Cc2cnc3nc(N)nc(N)c3c2C)c1 [PIRITREXIM] |  |  |
| 220 nM | 1300 nM | 0.17 | COc1cc(CCCC2CCc3nc(N)nc(N)c32)cc(OC)c1OC (stereo not given) | 140 nM | 1.57 |
